Measurements taken from the NIST ThermoML archive (doi:10.1021/je800158z).
Numbers after ± are expanded uncertainties.

How the values were obtained:
[1] = 81.5 kPa, Liquid
[2] = xn = mol fraction of the nth substance listed; settings: 81.5 kPa, Liquid

CCCO [propan-1-ol]
mass density ([1]; 293.15 K): 803.59 ± 0.44 kg/m3 | mass density ([1]; 303.15 K): 795.53 ± 0.45 kg/m3 | mass density ([1]; 313.15 K): 787.38 ± 0.46 kg/m3 | mass density ([1]; 323.15 K): 778.92 ± 0.48 kg/m3

CCCO [propan-1-ol] + O
mass density ([2]; 293.15 K, x1 = 0.0401): 980.98 ± 0.16 kg/m3 | mass density ([2]; 293.15 K, x1 = 0.1202): 947.94 ± 0.21 kg/m3 | mass density ([2]; 293.15 K, x1 = 0.2): 918.86 ± 0.26 kg/m3 | mass density ([2]; 293.15 K, x1 = 0.2798): 895.6 ± 0.29 kg/m3 | mass density ([2]; 293.15 K, x1 = 0.3599): 877.53 ± 0.32 kg/m3 | mass density ([2]; 293.15 K, x1 = 0.4399): 863 ± 0.34 kg/m3 | mass density ([2]; 293.15 K, x1 = 0.5197): 851.12 ± 0.36 kg/m3 | mass density ([2]; 293.15 K, x1 = 0.5986): 840.82 ± 0.38 kg/m3 | mass density ([2]; 293.15 K, x1 = 0.6792): 831.69 ± 0.39 kg/m3 | mass density ([2]; 293.15 K, x1 = 0.7485): 824.84 ± 0.4 kg/m3 | mass density ([2]; 293.15 K, x1 = 0.8383): 816.74 ± 0.42 kg/m3 | mass density ([2]; 293.15 K, x1 = 0.9052): 811.17 ± 0.43 kg/m3 | mass density ([2]; 293.15 K, x1 = 1): 803.59 ± 0.44 kg/m3 | mass density ([2]; 303.15 K, x1 = 0.0401): 976.93 ± 0.16 kg/m3 | mass density ([2]; 303.15 K, x1 = 0.1202): 941.35 ± 0.22 kg/m3 | mass density ([2]; 303.15 K, x1 = 0.2): 911.37 ± 0.27 kg/m3 | mass density ([2]; 303.15 K, x1 = 0.2798): 887.91 ± 0.3 kg/m3 | mass density ([2]; 303.15 K, x1 = 0.3599): 869.57 ± 0.33 kg/m3 | mass density ([2]; 303.15 K, x1 = 0.4399): 854.86 ± 0.36 kg/m3 | mass density ([2]; 303.15 K, x1 = 0.5197): 842.87 ± 0.37 kg/m3 | mass density ([2]; 303.15 K, x1 = 0.5986): 832.48 ± 0.39 kg/m3 | mass density ([2]; 303.15 K, x1 = 0.6792): 823.34 ± 0.41 kg/m3 | mass density ([2]; 303.15 K, x1 = 0.7485): 816.47 ± 0.42 kg/m3 | mass density ([2]; 303.15 K, x1 = 0.8383): 808.45 ± 0.43 kg/m3 | mass density ([2]; 303.15 K, x1 = 0.9052): 802.94 ± 0.44 kg/m3 | mass density ([2]; 303.15 K, x1 = 1): 795.53 ± 0.45 kg/m3 | mass density ([2]; 313.15 K, x1 = 0.0401): 972.23 ± 0.17 kg/m3 | mass density ([2]; 313.15 K, x1 = 0.1202): 934.48 ± 0.23 kg/m3 | mass density ([2]; 313.15 K, x1 = 0.2): 903.85 ± 0.28 kg/m3 | mass density ([2]; 313.15 K, x1 = 0.2798): 879.98 ± 0.32 kg/m3 | mass density ([2]; 313.15 K, x1 = 0.3599): 861.38 ± 0.35 kg/m3 | mass density ([2]; 313.15 K, x1 = 0.4399): 846.49 ± 0.37 kg/m3 | mass density ([2]; 313.15 K, x1 = 0.5197): 834.37 ± 0.39 kg/m3 | mass density ([2]; 313.15 K, x1 = 0.5986): 823.92 ± 0.4 kg/m3 | mass density ([2]; 313.15 K, x1 = 0.6792): 814.76 ± 0.42 kg/m3 | mass density ([2]; 313.15 K, x1 = 0.7485): 807.91 ± 0.43 kg/m3 | mass density ([2]; 313.15 K, x1 = 0.8383): 799.96 ± 0.44 kg/m3 | mass density ([2]; 313.15 K, x1 = 0.9052): 794.55 ± 0.45 kg/m3 | mass density ([2]; 313.15 K, x1 = 1): 787.38 ± 0.46 kg/m3 | mass density ([2]; 323.15 K, x1 = 0.0401): 966.91 ± 0.18 kg/m3 | mass density ([2]; 323.15 K, x1 = 0.1202): 927.31 ± 0.24 kg/m3 | mass density ([2]; 323.15 K, x1 = 0.2): 896.05 ± 0.29 kg/m3 | mass density ([2]; 323.15 K, x1 = 0.2798): 871.78 ± 0.33 kg/m3 | mass density ([2]; 323.15 K, x1 = 0.3599): 852.93 ± 0.36 kg/m3 | mass density ([2]; 323.15 K, x1 = 0.4399): 837.86 ± 0.38 kg/m3 | mass density ([2]; 323.15 K, x1 = 0.5197): 825.64 ± 0.4 kg/m3 | mass density ([2]; 323.15 K, x1 = 0.5986): 815.16 ± 0.42 kg/m3 | mass density ([2]; 323.15 K, x1 = 0.6792): 805.95 ± 0.43 kg/m3 | mass density ([2]; 323.15 K, x1 = 0.7485): 799.13 ± 0.44 kg/m3 | mass density ([2]; 323.15 K, x1 = 0.8383): 791.25 ± 0.46 kg/m3 | mass density ([2]; 323.15 K, x1 = 0.9052): 785.94 ± 0.46 kg/m3 | mass density ([2]; 323.15 K, x1 = 1): 778.92 ± 0.48 kg/m3
